Source: patent US20060287397A1, “Dl-hydroxy-alkyl-phenylamides having anticonvulsive activity” (priority 2002, published 2006)
Where two headings read alike, the source gives them in different places.

Experiments:
[1] = tested on: Seizures induced by pentylenetetrazol (PTZ) in mice; test: Pentylenetetrazol test (anticonvulsant activity); type: in vivo; conditions: for ED50: Mus musculus, ip, 0.5 h; for ED50 / ED50 PTZ: male CF-1 mice, compound i.p., pentylenetetrazol 100 mg kg^−1 i.p. 30 min after, end point suppression of clonic seizures and death; for anticonvulsant activity relative to that of the non-halogenated compounds: pentylenetetrazol test, mice, from Table 1
Method: Male albino mice CF-1 strain (National Institute of Virology, Mexico City) weighing 18-25 g were housed in groups of 20, at room temperature (20-24° C.), with tap water and food (pellet type Blue Bonnet) ad libitum, with a 12-h light-dark cycle. DL-2-hydroxy-2-phenyl butyramide, DL-3-hydroxy-3-phenyl pentanamide, DL-4-hydroxy-4-phenyl hexanamide and pentylenetetrazol were dissolved in water and compounds 1-10 were dissolved in a 30% polyethyleneglycol-400 solution. All the compounds used were administered intraperitoneally (i.p.). The convulsant dose of pentylenetetrazol inducing seizures and death in 100% of mice (CD100) was determined and used in the test. CD100 value obtained was 100 mg kg^1. To determine the dose-response curves five separate groups of 10-20 mice were dosed i.p. with the test compounds, and pentylenetetrazol, 100 mg kg^−1, i.p., was administered at 30 min after. The suppression of clonic seizures and death was considered the end point of the test. […] The ED50 and 95% confidence intervals were calculated by the method of Litchfield and Wilcoxon (Table 1). See Litchfield et al., J. Pharmacol. Exp. Ther. 96, 99 (1949).

[2] = tested on: hippocampal kindling; conditions: rats; cited from earlier work
[3] = tested on: seizures provoked by pentylenetetrazole, bicuculline, 4-aminopyridine, thiosemicarbazide and maximal electroshock; conditions: mice; cited from earlier work
[4] = tested on: hippocampal kindling; conditions: cats; cited from earlier work
[5] = tested on: focal spike activity; conditions: genetic absence epilepsy rats of the Strasbourg model; cited from earlier work
[6] = tested on: γ-aminobutyric acid withdrawal syndrome; conditions: rats; cited from earlier work

SMILES | ED50 [1] [mg/kg] | anticonvulsant activity relative to that of the non-halogenated compounds [1] | further results
CCC(O)(C(N)=O)c1cc(C(F)(F)F)cc(C(F)(F)F)c1 (racemic) [Compound 1, DL-2-hydroxy-2-(3′,5′-bistrifluoromethylphenyl) butyramide] | 10 | more than fivefold, sixfold or sevenfold | 
CCC(O)(C(N)=O)c1ccc(C(F)(F)F)cc1 (racemic) [Compound 2, DL-2-hydroxy-2-(4′-trifluoromethylphenyl)butyramide] | 23 | twice, threefold or more than fourfold | 
CCC(O)(C(N)=O)c1ccc(Cl)c(Cl)c1 (racemic) [Compound 3, DL-2-hydroxy-2-(3′,4′-dichlorophenyl)butyramide] | 10 | more than fivefold, sixfold or sevenfold | 
CCC(O)(C(N)=O)c1cccc(Br)c1 (racemic) [Compound 4, DL-2-hydroxy-2-(3′-bromophenyl)butyramide] | 8 | more than fivefold, sixfold or sevenfold | 
CCC(O)(C(N)=O)c1ccc(Br)cc1 (racemic) [Compound 5, DL-2-hydroxy-2-(4′-bromophenyl)butyramide] | 8 | more than fivefold, sixfold or sevenfold | 
CCC(O)(C(N)=O)c1cccc([N+](=O)[O-])c1 (racemic) [Compound 6, DL-2-hydroxy-2-(3′-nitrophenyl)butyramide] | 36 | twice, threefold or more than fourfold | 
CCC(O)(CC(N)=O)c1ccc(Cl)c(Cl)c1 (racemic) [Compound 7, DL-3-hydroxy-3-(3′,4′-dichlorophenyl)pentanamide] | 16 | twice, threefold or more than fourfold | 
CCC(O)(CC(N)=O)c1ccc(Br)cc1 (racemic) [Compound 8, DL-3-hydroxy-3-(4′-bromophenyl) pentanamide] | 8 | more than fivefold, sixfold or sevenfold | 
CCC(O)(CCC(N)=O)c1ccc(Cl)c(Cl)c1 (racemic) [Compound 9, DL-4-hydroxy-4-(3′,4′-dichlorophenyl)hexanamide] | 12 | twice, threefold or more than fourfold | 
CCC(O)(CCC(N)=O)c1ccc(Br)cc1 (racemic) [Compound 10, DL-4-hydroxy-4-(4′-bromophenyl)hexanamide] | 9 | more than fivefold, sixfold or sevenfold | 
CCC(O)(C(N)=O)c1ccccc1 (racemic) [DL-2-hydroxy-2-Phenyl butyramide, DL-2-hydroxy-2-phenylbutyramide] |  |  | protection against hippocampal kindling [2]: protect cats and rats against hippocampal kindling; protection against seizures [3]: protect mice against seizures; ED50 PTZ [1]: 58 mgkg^−1; protection against hippocampal kindling [4]: protect cats and rats against hippocampal kindling
CCC(O)(CC(N)=O)c1ccccc1 (racemic) [DL-3-hydroxy-3-Phenyl pentanamide, DL-3-hydroxy-3-phenylpentanamide] |  |  | protection against hippocampal kindling [2]: protect cats and rats against hippocampal kindling; protection against seizures [3]: protect mice against seizures; ED50 PTZ [1]: 49 mgkg^−1; protection against hippocampal kindling [4]: protect cats and rats against hippocampal kindling; focal spike activity [5]: significant decrease of focal spike activity; protection against γ-aminobutyric acid withdrawal syndrome [6]: protects rats against the γ-aminobutyric acid withdrawal syndrome
CCC(O)(CCC(N)=O)c1ccccc1 (racemic) [DL-4-hydroxy-4-Phenylhexanamide, DL-4-hydroxy-4-phenylhexanamide] |  |  | protection against hippocampal kindling [2]: protect cats and rats against hippocampal kindling; protection against seizures [3]: protect mice against seizures; ED50 PTZ [1]: 55 mgkg^−1; protection against hippocampal kindling [4]: protect cats and rats against hippocampal kindling
